Data reported in article PMC10056636, “3-Amino-Substituted Analogues of Fusidic Acid as Membrane-Active Antibacterial Compounds” (Membranes, 2023).
In brackets after ≈: the same amount, converted by molar mass. Several values for one entry are separate records, joined by “and”; a condition that tells them apart may be missing. Equal entries are not always repeated.

Experiments:
[1] = tested on: Cryptococcus neoformans (ATCC 208821); experiment: Antifungal growth inhibition (MIC, CO-ADD); conditions: inhibition ≥70%, two replicates per cell
Description: Antimicrobial, cytotoxicity, and hemolytic activity screening of the synthesized derivatives was carried out in the CO-ADD (The Community for Antimicrobial Drug Discovery) (http://www.co-add.org, accessed on 24 November 2020) and included analysis for antibacterial properties, cytotoxicity, and hemolytic activity.
The hit confirmation test included five bacteria, Escherichia coli (ATCC 25922), Klebsiella pneumoniae (ATCC 700603), Acinetobacter baumannii (ATCC 19606), Pseudomonas aeruginosa (ATCC 27853), and Staphylococcus aureus (ATCC 43300), and two fungi, Candida albicans (ATCC 90028) and Cryptococcus neoformans (ATCC 208821). […] The compounds were also screened for hemolysis of human red blood cells (human whole blood, strain ARCBS 5400 00150).
Samples were prepared in DMSO and water to a final testing concentration of 32 µg/mL or 20 µM (unless otherwise indicated in the data sheet) and serially diluted twofold up to 8 times. Each sample concentration was prepared in 384-well plates: non-binding surface plate (NBS; Corning 3640) for each bacterial/fungal strain, tissue-culture treated (TC-treated; Corning 3712/3764) black for mammalian cell types and polypropylene 384-well plates (PP; Corning 3657) for hemolysis assays. The final DMSO concentration was maintained to a maximum of 0.5%. All sample preparation procedures were performed using liquid-handling robots. All screening was performed as two replica (n = 2), with both replicas on different assay plates, but from single plating and performed in a single screening experiment (microbial incubation). In addition, two values are used as quality controls for individual plates: Z′-Factor [1 − (3* (sd(NegCtrl) + sd(PosCtrl))/(average(PosCtrl)-average(NegCtrl)))] and standard antibiotic controls at different concentrations (>MIC and <MIC).
Fungi strains were cultured for 3 days on yeast extract-peptone dextrose (YPD) agar at 30 °C. A yeast suspension of 1 × 10^6 to 5 × 10^6 CFU/mL (as determined by OD530) was prepared from five colonies. The suspension was subsequently diluted and added to each well containing a test compound, giving a final cell density of fungi suspension of 2.5 × 10^3 CFU/mL and a total volume of 50 µL. All plates were covered and incubated at 35 °C for 36 h without shaking.
The absorbance was measured using a Biotek Multiflo Synergy HTX plate reader. In both cases, the percentage of growth inhibition was calculated for each well, using the negative control (media only) and positive control (fungi without inhibitors) in the same plate. […] In addition, the maximal percentage of growth inhibition is reported as DMax, indicating any compounds with marginal activity.
Fluconazole was used as a positive fungal inhibitor standard for C. albicans and C. neoformans. […] The quality control (QC) of the assays was performed using Z′-factors calculated from the negative (media only) and positive controls (bacterial, fungal, or cell culture without inhibitor) and the standards.

[2] = Ion permeability and rupture of planar lipid bilayers; conditions: for concentration up to which addition did not increase the ion permeability of the lipid bilayers: DPhPC uncharged membranes; for Cbr (threshold concentration required to rupture the bilayer): DPhPC, 0.1 M KCl, pH 7.4, 100 mV
Description: Synthetic 1,2-diphytanoyl-sn-glycero-3-phosphocholine (DPhPC) and 1,2-diphytanoyl-sn-glycero-3-phospho-(1′-rac-glycerol) (DPhPG) were purchased from Avanti® Polar Lipids (Avanti Polar Lipids, Inc., Alabaster, AL, USA). A KCl solution (0.1 M) was buffered with 5 mM HEPES, pH 7.4. Bilayer lipid membranes were prepared from DPhPC or DPhPG using a monolayer-opposition technique on a 50 µm-diameter aperture in a 10 µm-thick Teflon film separating the cis- and trans-compartments of the Teflon chamber. Experiments were performed in chambers containing 0.1 M KCl, 5 mM Hepes-KOH, pH 7.4.
The test compounds (4, 20, 22) were added to the cis-chamber as 10 mg/mL solutions in ethanol (to mimic the physiologically relevant conditions) up to the final concentrations and the effects of the compounds on the ion permeability of the model lipid membranes were studied. Ag/AgCl electrodes with 1.5% agarose/2 M KCl bridges were used to apply the transmembrane voltage (V) and measure the transmembrane current (I). ‘Positive voltage’ refers to the case in which the cis-side compartment is positive with respect to the trans-side. All experiments were performed at room temperature.
The current was measured using an Axopatch 200B amplifier (Molecular Devices, LLC, Orlean, CA, USA) in voltage clamp mode. Data were digitized using a Digidata 1440A and analyzed using pClamp 10.0 (Molecular Devices, LLC, Orlean, CA, USA) and Origin 8.0 (OriginLab Corporation, Northampton, MA, USA). The data were acquired at a sampling frequency of 5 kHz using low-pass filtering at 200 Hz.
The threshold concentrations (Cbr) of the derivatives required to rupture the bilayers composed of DPhPC or DPhPG at a transmembrane voltage of 100 mV were determined. Cbr-values were averaged from 3 to 4 bilayers and presented as mean ± standard error (p ≤ 0.05).

[3] = tested on: human red blood cells; experiment: Hemolysis assay; format: cell-based; conditions: human, 1 h
Description: (§1) Human whole blood was washed three times with 3 volumes of 0.9% NaCl and then resuspended in the same medium to a concentration of 0.5 × 10^8 cells/mL, as determined by manual cell count in a Neubauer hemocytometer. The washed cells were then added to 384-well plates containing the test compounds to a final volume of 50 µL. After shaking on a plate shaker for 10 min, the plates were incubated for 1 h at 37 °C. After incubation, the plates were centrifuged at 1000× g for 10 min to pellet the cells and debris; 25 µL of the supernatant was then transferred to a polystyrene 384-well assay plate.
(§2) Hemolysis was monitored by measuring the supernatant absorbance at […] (OD405). The absorbance was measured using a Tecan M1000 Pro monochromator plate reader. HC10 and HC50 (10% and 50% hemolysis concentrations, respectively) were calculated by curve fitting of inhibition vs. log(concentration) using a sigmoidal dose–response function with variable fitting values for top, bottom, and slope. In addition, the maximal percentage of hemolysis is reported as DMax, indicating any compounds with partial hemolysis. The curve fitting was implemented using Pipeline Pilot’s dose–response component. […] Any value with > indicated sample with no activity (low DMax value) or samples with HC10 values above the maximum tested concentration (higher DMax value).
(§3) In addition, samples were flagged as partially hemolytic if DMax ≥ 50%, even for HC10 > the maximum tested concentration. […]

[4] = Hemolysis assay; format: cell-based, human; conditions: human, Dmax (maximal percentage of hemolysis)
Description: as §1, §2, §3

[5] = Calcein release from liposomes; conditions: for τ (characteristic time of marker release): 5 μg/mL; for IFmax (maximum release of fluorescent marker from lipid vesicles): 5 μg/mL of test compound
Description: Calcein release from liposomes. Small unilamellar vesicles (Ø100 nm) composed of 1,2-dioleoyl-sn-glycero-3-phosphocholine (DOPC) or 1,2-dioleoyl-sn-glycero-3-phospho-(1′-rac-glycerol) (DOPG) and loaded with the fluorescent dye calcein (35 mM) were obtained using a mini-extruder (Avanti Polar Lipids, Alabaster, AL, USA). At this concentration, calcein fluorescence inside the liposomes is self-quenched. The calcein that was not entrapped in the vesicles was removed by gel filtration with calcein-free solution (150 mM KCl, 10 mM HEPES, pH 7.4). An increase in the free calcein fluorescence in a surrounding medium is a measure of the disturbance of membrane integrity, in the absence and presence of test compounds (4, 20, 22). The control samples were not modified. Experimental samples were treated by 5 µg/mL of the compounds (4, 20, 22). Fluorescence of released calcein was determined on a Fluorat-02-Panorama spectrofluorimeter (Lumex, Saint-Petersburg, Russia) (excitation wavelength of 490 nm, emission wavelength of 520 nm). The detergent Triton X-100 (at a final concentration of 1%) was added at the end of experiments for complete disruption of liposomes (complete release of calcein from the vesicles).
The relative intensity of calcein fluorescence (IF, %) was calculated as:(2) IF=I−I0/Imax/0.9−I0⋅100% where I and I0 are the calcein fluorescence intensities in the presence and absence of test compounds, respectively, and Imax is the maximal fluorescence after treatment of liposomes with Triton X-100 (a factor of 0.9 was introduced to account for sample dilution by Triton X-100).

[6] = Measurement of the membrane boundary potential (K+-nonactin conductance); conditions: 0.1 M KCl, pH 7.4, 50 mV
Description: Measurement of the membrane boundary potential. Virtually solvent-free planar lipid bilayers were made of DPhPC or DPhPG as described above. After the membrane was completely formed and stabilized and its stability was assessed by applying voltages in a range from −200 to 200 mV with a 50 mV step for 5–10 min, stock solutions of nonactin A (7 μg/mL in ethanol) were added to the bathing solution (0.1 M KCl, 5 mM HEPES, pH 7.4) in both chamber compartments to obtain a final concentration ranging from 0.1 to 1 μM.
Test derivatives (4, 20, 22) as 10 mg/mL solutions in ethanol were added to both compartments in a concentration range from 5 µg/mL to Cbr in increments of 25 µg/mL.
The conductance of the bilayers was determined by measuring the membrane conductance (G) at a constant transmembrane voltage of 50 mV. In the subsequent calculations, the membrane conductance was assumed to be related to the membrane boundary potential (φb), the potential drop between the aqueous solution and the membrane hydrophobic core, by the Boltzmann distribution (1) Gm/Gm0=exp(eΔφb/kT) where Gm and Gm^0 are the steady-state membrane conductances induced by K^+-nonactin in the presence and absence of test compounds, respectively; e, k, and T have their usual meanings.
The changes in the membrane boundary potential for the defined experimental conditions were averaged from 4 bilayers and presented as mean ± standard deviation (p ≤ 0.05).

Structure (SMILES)	MIC ([1]; C. neoformans)	MIC ([1]; Cryptococcus neoformans, ATCC208821, C. neoformans) [µg/mL]	concentration up to which addition did not increase the ion permeability of the lipid bilayers [2] [µg/mL]	Cbr (threshold concentration required to rupture the bilayer) [2] [µg/mL]	Dmax (maximal percentage of hemolysis) [3] [%]	HC50 [3]	hemolysis at 1 h [4] [%]	τ (characteristic time of marker release) ([5]; DOPC) [min]	IFmax (maximum release of fluorescent marker from lipid vesicles) ([5]; DOPC) [%]	τ (characteristic time of marker release) ([5]; DOPG) [min]	IFmax (maximum release of fluorescent marker from lipid vesicles) ([5]; DOPG) [%]	−Δφb(max) (maximum decrease in the membrane boundary potential) ([6]; DPhPC) [mV]	−Δφb(max) (maximum decrease in the membrane boundary potential) ([6]; DPhPG) [mV]
COC(=O)/C(CCC=C(C)C)=C1\[C@@H](OC(C)=O)C[C@@]2(C)[C@@H]1C[C@@H](O)[C@@H]1[C@@]3(C)CC[C@H](NCCCNCCCCNCCCN)[C@@H](C)C3CC[C@@]12C (stereo partly drawn) [Compound 22, Methyl (2Z)-2-[(3β,4α,8α,11α,14β,16β)-16-(acetyloxy)-3-{[3-({4-[(3-aminopropyl)amino]butyl}amino)propyl]amino}-11-hydroxy-4,8,10,14-tetramethylgonan-17-ylidene]-6-methylhept-5-enoate]	1.0 µg/mL and 2.0 µg/mL	1 (≈ 1.4 µM)	≤ 250	250 ± 11	11.3	>32 >32 µg/mL	15.1	0.7 ± 0.2	95 ± 2	9.8 ± 0.4	83 ± 3	40 ± 8	23 ± 8
COC(=O)/C(CCC=C(C)C)=C1\[C@@H](OC(C)=O)C[C@@]2(C)[C@@H]1C[C@@H](O)[C@@H]1[C@@]3(C)CC[C@H](NCCCNCCCCN)[C@@H](C)C3CC[C@@]12C (stereo partly drawn) [Compound 20, Methyl (2Z)-2-[(3β,4α,8α,11α,14β,16β)-16-(acetyloxy)-3-({3-[(4aminobutyl)amino]propyl}amino)-11-hydroxy-4,8,10,14-tetramethylgonan-17-ylidene]-6-methylhept-5-enoate]			≤ 275	275 ± 25	60.5		61.8	0.5 ± 0.2	88 ± 3	1.0 ± 0.1	87 ± 4	29 ± 7	11 ± 4
